Laboratory results: patent publication US11078232B2, “Preparation and use of molecular site targeted and activated kinase inhibitor” (Yafei Shanghai Biology Medicine Science & Technology Co. …, priority 2017, dated 2021)
Read-outs that look alike come from different tables or passages of the source. Residues, ends and D or L forms follow the SMILES beside them. *: point of attachment. Doxorubicin(3'-N) = COc1cccc2c1C(=O)c1c(O)c3c(c(O)c1C2=O)C[C@@](O)(C(=O)CO)C[C@@H]3O[C@H]1C[C@H](N*)[C@H](O)[C@H](C)O1; X1 = CN(CCNC(=O)c1cc(Oc2ccc(NC(=O)Nc3ccc(Cl)c(C(F)(F)F)c3)cc2)ccn1)*; Hexanoyl(6-maleimido) = O=C1C=CC(=O)N1CCCCCC(=O)*

Tests used:
[1] = test system: CT26 tumor cells; test: CT26 immunotherapy model (Example 15); type: in vivo, mice
Description: (§1) 1) CT26 tumor cells were purchased from ATCC, and the cells were cultured using a 10% fetal bovine serum DMEM medium at 37° C., 5% CO2. The cells were passaged every 3 days and the cells were used within 15 generations.
(§2) 2) Tumor production: 10^6 live CT26 tumor cells were injected subcutaneously into the back of tumor-immunized […], and treatment was started when the tumor grew to about 0.3-0.4 cm. The tumor size (mm^3) of the mice was recorded and compared with the solvent control group. The tumor inhibition rate on day 42 was calculated in the solvent control group.
(§3) 3) Treatment process: IV injection is used, and the drug is used at a dose of ⅓ MTD once a week Immunosuppressive IV injection treatment once a week for a total of 6 weeks of treatment.
(§4) 4) The cure rate of 10 in each group was counted. After 50 days, the cured mice and wild groups were inoculated […] to detect recurrence.

[2] = test system: BALB/C mouse; test: MTD (maximum tolerated dose) acute toxicity in mice; type: in vivo; conditions: intravenous; for Number of deaths: 10 mice per group; for Death dose: observed 17 days
Description: (§5) Test purpose: to investigate the acute toxicity of highly activated compounds by targeted site molecules of the invention by measuring the MTD (maximum tolerated dose) experiment in mice.
(§6) The injections of each drug and the control drug were uniformly dissolved using water for injection, and diluted to the corresponding dose with physiological saline during the test.
(§7) Methods and results: […] BALB/C mice, weighing 19-21 g, were randomly divided into 10 groups, with 10 mice in each group. […] A control test of the saline group and the adriamycin group injection (commercially available, Beijing Yue kang) was carried out, and the injection volume of each mouse was 0.2 ml. […] On the D3, D5, and D14, blood samples were taken for whole blood count.

[3] = test system: CT26 tumor cells; test: CT26 treatment model (Example 17); type: in vivo, mice; conditions: CT26 model as in Example 15
Description: as §1, §2, §3, §4
The CT26 immunotherapy model was constructed as in Example 15, and the pharmacodynamic and immunotherapeutic effects of the compounds S4-S6, S9-S12 and S15-S18 in the CT26 treatment model were tested.

[4] = test system: D121 lung cancer cells; test: D121 lung cancer immunotherapy model; conditions: for Tumor inhibition rate/% (week 7) / CD8: CD45 (%): single agent; for Tumor inhibition rate/% (week 7): i.v. ⅙ MTD once a week for 4 weeks; for CD8: CD45 (%): tumor CD8+ T cells among CD45-positive cells
Description: (1) D121 lung cancer cells purchased from ATCC were cultured in DMEM medium containing 10% fetal bovine serum at 37° C. and 5% CO2, and the cells were digested with EDTA trypsin according to routine use, and passed two to three times a week for placement.
(2) Animals: C57 BALB/C mice, 6-8 weeks old, female, weighing about 18-22 g, purchased from Shanghai SLAC Laboratory Animal Co., Ltd.
3) Immunization: Mice were intraperitoneally injected with 100 μL of 5×10^5 D121 lung cancer cells that died by repeated freeze-thaw cycles, and immunized 3 times with an interval of 2 weeks.
4) Cell seeding: Collect the tumor cells in logarithmic growth phase, adjust the D121 cell concentration to (1×10^7/ml) with DMEM basal medium, 0.1 ml of the cell suspension was inoculated to the right side of each mouse subcutaneously with a 1 ml syringe. […] Tumor volume was observed and measured, and the average tumor volume reached 100-200 mm^3 about 7 days after inoculation, that is, tumor cell-bearing mice were grouped and administered. The immunized group in Table 9 was immunized with D121 lung cancer cells, and the D121 dead tumor cell immunized group was injected with physiological saline as a control.
The immunosuppressive regulatory point protein Anti-PD-L1 antibody was injected twice a week. A total of two weeks.
6) Experimental observation: During the whole experiment, the use and observation of experimental animals were carried out in accordance with the regulations of AAALAC. The experimental animals were observed daily after inoculation of tumor cells, and their onset and death were recorded. During the routine experiment, all experimental animals were monitored and recorded for behavior, feeding, water intake, weight change, hair shine and other abnormalities.
(7) Analysis of tumor CD8+ T cells (T lymphocyte subsets). Tumor tissues were ground and single cancer cells were isolated by filtration using 40 μm Nylon cell strainer, lysed twice with blood cell lysis buffer for 20 min, washed twice with 1% BSA-PBS buffer, centrifuged, and resuspended, and then the cells were counted again. 1×10^5 cells were incubated with leukocyte co-antigen CD45-PE and CD8-FITC-labeled antibody for 1 hour at room temperature in the dark, and then analyzed the proportion of T lymphocyte antigen (CD8) in leukocyte common antigen (CD45)-positive cells by flow cytometry.

[5] = MTD (maximum tolerated dose) acute toxicity in mice; type: in vivo, mouse; conditions: mouse, in vivo, BALB/C mice, intravenous, observed 17 days; for MTD at 17 days: female
Description: as §5, §6, §7

[6] = Solid stability, 60° C. for 10 days in the dark (HPLC); type: physicochemical
Description: The test was carried out by leaving it at 60° C. for 10 days in the dark. The ratio of the change in the content of the compound to the compound at time 0 was measured by HPLC, and the stability value (%) was calculated.

[7] = solid, 60° C., 10 days, dark, content versus time 0

## COc1cccc2c1C(=O)c1c(O)c3c(c(O)c1C2=O)C[C@@](O)(C(=O)CO)C[C@@H]3O[C@H]1C[C@H](N)[C@H](O)[C@H](C)O1 [Adriamycin, reference compound]
[1]; 10 in each group
  Cure rate %: 0%
  Number of cures: 0
[1]; IV ⅓ MTD once a week, 6 weeks
  Tumor inhibition rate % (Day 42): 24.5%
[2]
  Number of deaths: 3
  Death dose: 10 mg/kg
[3]
  CD8: CD45 (%): 6.4%
  Number of animals cured: 0
  Tumor inhibition rate/% (at week 7): 14.6%
[4]; flow cytometry, discussion of Table 6
  effect on T cells: inhibited T cells
[4]
  Tumor inhibition rate/% (week 7): 14.6%
[4]; flow cytometry
  CD8: CD45 (%): 5.4%

## CC(C)C[C@H](NC(=O)[C@H](CC(N)=O)NC(=O)[C@H](C)NC(=O)[C@H](C)N)C(=O)N(C)CCNC(=O)c1cc(Oc2ccc(NC(=O)Nc3ccc(Cl)c(C(F)(F)F)c3)cc2)ccn1 [Compound C1, AANL-Compound a, reference compound] (H-AANL-X1)
[2]
  Number of deaths: 1
  Death dose: 80 mg/kg
[5]
  MTD at 17 days: 65 mg/kg
[6]; solid, 60° C., 10 days, dark
  Stability verdict (stable / unstable): stable
[6]; [7]
  Stability(%): 96.8%

## C[C@H](N)C(=O)N[C@@H](C)C(=O)N[C@@H](CC(N)=O)C(=O)Nc1ccc(COC(=O)N(C)CCNC(=O)c2cc(Oc3ccc(NC(=O)Nc4ccc(Cl)c(C(F)(F)F)c4)cc3)ccn2)cc1 [Compound C2, AAN-PABC-Compound a, reference compound]
[2]
  Number of deaths: 2
  Death dose: 70 mg/kg
[5]
  MTD at 17 days: 60 mg/kg
[6]; solid, 60° C., 10 days, dark
  Stability verdict (stable / unstable): unstable
[6]; [7]
  Stability(%): 89.4%

## COc1cccc2c1C(=O)c1c(O)c3c(c(O)c1C2=O)C[C@@](O)(C(=O)CO)C[C@@H]3O[C@H]1C[C@H](NC(=O)[C@H](CC(C)C)NC(=O)[C@H](CC(N)=O)NC(=O)[C@H](C)NC(=O)[C@H](C)NC(=O)CCCCCN2C(=O)C=CC2=O)[C@H](O)[C@H](C)O1 [Compound C11, EMC-AANL-Adriamycin, reference compound] ({Hexanoyl(6-maleimido)}-AANL-{Doxorubicin(3'-N)})
[2]
  Number of deaths: 2
  Death dose: 120 mg/kg
[5]
  MTD at 17 days: 110 mg/kg
[6]
  Stability verdict (stable / unstable): 96.5, stable
  Stability(%): 96.5, stable %

## CC(NC(=O)C(C)NC(=O)[C@H](O)[C@H](O)[C@@H](O[C@@H]1O[C@H](CO)[C@H](O)[C@H](O)[C@H]1O)[C@H](O)CO)C(=O)NC(CC(N)=O)C(=O)Nc1ccc(COC(=O)Nc2nccc(-c3sc(C(C)(C)C)nc3-c3cccc(NS(=O)(=O)c4c(F)cccc4F)c3F)n2)cc1 (stereo partly shown) [Compound S4]
[2]
  Number of deaths: 2
  Death dose: 300 mg/kg
[5]
  MTD at 17 days: 280 mg/kg
[3]
  CD8: CD45 (%): 11.9%
  Number of animals cured: 2
  Recurrence rate/% (at week 10): 0%
  Tumor inhibition rate/% (at week 7): 58.9%
[4]
  Tumor inhibition rate/% (week 7): 70.7%
[4]; flow cytometry
  CD8: CD45 (%): 15.8%

## CC(NC(=O)C(C)NC(=O)[C@H](O)[C@H](O)[C@@H](O[C@@H]1O[C@H](CO)[C@H](O)[C@H](O)[C@H]1O)[C@H](O)CO)C(=O)NC(CC(N)=O)C(=O)Nc1ccc(COC(=O)Nc2c(-c3nc4ccc(N5CCN(C)CC5)cc4[nH]3)c(=O)[nH]c3cccc(F)c23)cc1 (stereo partly shown) [Compound S5]
[2]
  Number of deaths: 2
  Death dose: 320 mg/kg
[5]
  MTD at 17 days: 310 mg/kg
[3]
  CD8: CD45 (%): 11.5%
  Number of animals cured: 1
  Recurrence rate/% (at week 10): 0%
  Tumor inhibition rate/% (at week 7): 60.1%
[4]
  Tumor inhibition rate/% (week 7): 76.7%
[4]; flow cytometry
  CD8: CD45 (%): 15.3%

## COc1cccc2c1C(=O)c1c(O)c3c(c(O)c1C2=O)C[C@](O)(C(=O)CO)CC3OC1C[C@H](NC(=O)OCc2ccc(NC(=O)C(CC(N)=O)NC(=O)C(C)NC(=O)C(NC(=O)[C@H](O)[C@H](O)[C@@H](O[C@@H]3O[C@H](CO)[C@H](O)[C@H](O)[C@H]3O)[C@H](O)CO)C(C)C)cc2)[C@H](O)[C@H](C)O1 (stereo partly shown) [Compound S9]
[2]
  Number of deaths: 2
  Death dose: 120 mg/kg
[5]
  MTD at 17 days: 100 mg/kg
[3]
  CD8: CD45 (%): 13.8%
  Number of animals cured: 3
  Recurrence rate/% (at week 10): 0%
  Tumor inhibition rate/% (at week 7): 66.7%

## CC(NC(=O)C(NC(=O)[C@H](O)[C@H](O)[C@@H](O[C@@H]1O[C@H](CO)[C@H](O)[C@H](O)[C@H]1O)[C@H](O)CO)C(C)C)C(=O)NC(CC(N)=O)C(=O)Nc1ccc(COC(=O)Nc2nccc(-c3sc(C(C)(C)C)nc3-c3cccc(NS(=O)(=O)c4c(F)cccc4F)c3F)n2)cc1 (stereo partly shown) [Compound S10]
[2]
  Number of deaths: 1
  Death dose: 320 mg/kg
[5]
  MTD at 17 days: 310 mg/kg
[3]
  CD8: CD45 (%): 15.9%
  Number of animals cured: 2
  Recurrence rate/% (at week 10): 0%
  Tumor inhibition rate/% (at week 7): 76.7%

## CC(NC(=O)C(NC(=O)[C@H](O)[C@H](O)[C@@H](O[C@@H]1O[C@H](CO)[C@H](O)[C@H](O)[C@H]1O)[C@H](O)CO)C(C)C)C(=O)NC(CC(N)=O)C(=O)Nc1ccc(COC(=O)Nc2c(-c3nc4ccc(N5CCN(C)CC5)cc4[nH]3)c(=O)[nH]c3cccc(F)c23)cc1 (stereo partly shown) [Compound S11]
[2]
  Number of deaths: 2
  Death dose: 330 mg/kg
[5]
  MTD at 17 days: 300 mg/kg
[3]
  CD8: CD45 (%): 15.1%
  Number of animals cured: 2
  Recurrence rate/% (at week 10): 0%
  Tumor inhibition rate/% (at week 7): 69.3%

## CC(NC(=O)C(NC(=O)[C@H](O)[C@H](O)[C@@H](O[C@@H]1O[C@H](CO)[C@H](O)[C@H](O)[C@H]1O)[C@H](O)CO)C(C)C)C(=O)NC(CC(N)=O)C(=O)Nc1ccc(COC(=O)N2CC(C)(C)c3ccc(NC(=O)c4cccnc4NCc4ccncc4)cc32)cc1 (stereo partly shown) [Compound S12]
[2]
  Number of deaths: 1
  Death dose: 300 mg/kg
[5]
  MTD at 17 days: 290 mg/kg
[3]
  CD8: CD45 (%): 10.8%
  Number of animals cured: 1
  Recurrence rate/% (at week 10): 0%
  Tumor inhibition rate/% (at week 7): 55.5%

## COc1cccc2c1C(=O)c1c(O)c3c(c(O)c1C2=O)C[C@](O)(C(=O)CO)CC3OC1C[C@H](NC(=O)OCc2ccc(NC(=O)C(CC(N)=O)NC(=O)C(C)NC(=O)C(NC(=O)[C@H](O)[C@H](O)[C@@H](O[C@@H]3O[C@H](CO)[C@H](O)[C@H](O)[C@H]3O)[C@H](O)CO)C(C)O)cc2)[C@H](O)[C@H](C)O1 (stereo partly shown) [Compound S15]
[2]
  Number of deaths: 1
  Death dose: 100 mg/kg
[5]
  MTD at 17 days: 90 mg/kg
[3]
  CD8: CD45 (%): 15.3%
  Number of animals cured: 1
  Recurrence rate/% (at week 10): 0%
  Tumor inhibition rate/% (at week 7): 70.2%

## C[C@H](NC(=O)[C@@H](NC(=O)[C@H](O)[C@@H](O)[C@H](O[C@@H]1O[C@H](CO)[C@H](O)[C@H](O)[C@H]1O)[C@H](O)CO)[C@@H](C)O)C(=O)N[C@@H](CC(N)=O)C(=O)Nc1ccc(COC(=O)Nc2nccc(-c3sc(C(C)(C)C)nc3-c3cccc(NS(=O)(=O)c4c(F)cccc4F)c3F)n2)cc1 [Compound S16]
[2]
  Number of deaths: 2
  Death dose: 300 mg/kg
[5]
  MTD: 290 mg/kg
[3]
  CD8: CD45 (%): 15.5%
  Number of animals cured: 2
  Recurrence rate/% (at week 10): 0%
  Tumor inhibition rate/% (at week 7): 71.6%

## CC(NC(=O)C(NC(=O)[C@H](O)[C@H](O)[C@@H](O[C@@H]1O[C@H](CO)[C@H](O)[C@H](O)[C@H]1O)[C@H](O)CO)C(C)O)C(=O)NC(CC(N)=O)C(=O)Nc1ccc(COC(=O)Nc2c(-c3nc4ccc(N5CCN(C)CC5)cc4[nH]3)c(=O)[nH]c3cccc(F)c23)cc1 (stereo partly shown) [Compound S17]
[2]
  Number of deaths: 1
  Death dose: 310 mg/kg
[5]
  MTD at 17 days: 290 mg/kg
[3]
  CD8: CD45 (%): 16.2%
  Number of animals cured: 1
  Recurrence rate/% (at week 10): 0%
  Tumor inhibition rate/% (at week 7): 70.9%

## CC(NC(=O)C(NC(=O)[C@H](O)[C@H](O)[C@@H](O[C@@H]1O[C@H](CO)[C@H](O)[C@H](O)[C@H]1O)[C@H](O)CO)C(C)O)C(=O)NC(CC(N)=O)C(=O)Nc1ccc(COC(=O)N2CC(C)(C)c3ccc(NC(=O)c4cccnc4NCc4ccncc4)cc32)cc1 (stereo partly shown) [Compound S18]
[2]
  Number of deaths: 2
  Death dose: 290 mg/kg
[5]
  MTD at 17 days: 280 mg/kg
[3]
  CD8: CD45 (%): 15.6%
  Number of animals cured: 2
  Recurrence rate/% (at week 10): 0%
  Tumor inhibition rate/% (at week 7): 71.7%
